# Reference: ChEMBL document CHEMBL1152143, “Potent benzimidazolone-based CGRP receptor antagonists” (Bioorg Med Chem Lett, 2008)
# What was measured:
# Settings in all cases: Macaca mulatta
# [1] = system: Rhesus monkey; experiment: Inhibition of CGRP-induced vasodilation in rhesus monkey at plasma concentration of 2 uM; assay type: functional
# [2] = system: Rhesus monkey; experiment: Inhibition of CGRP-induced vasodilation in rhesus monkey
# [3] = system: Rhesus monkey; experiment: Inhibition of CGRP-induced vasodilation in rhesus monkey at plasma concentration of 10 uM; assay type: functional
EC50 [2] [µM],SMILES,inhibition at 2 µM [1] [%],inhibition at 10 µM [3] [%]
0.3,Cc1cc(C)c2c(c1)n(CC(=O)Nc1ccc3c(c1)C[C@]1(C3)C(=O)NC(=O)N1C)c(=O)n2CC(=O)N(C)C,100,
10,Cc1cc(C)c2c(c1)n(CC(=O)Nc1ccc3c(c1)C[C@]1(C3)C(=O)NC(=O)N1C)c(=O)n2C,,50
